Measured values published in patent EP2276483B1, “SOLID FORMS COMPRISING (+)-2-[1-(3-ETHOXY-4-METHOXYPHENYL)-2-METHYLSULFONYLETHYL]-4-ACETYLAMINOISOINDOLINE-1,3-DIONE, COMPOSITIONS THEREOF, AND USES THEREOF” (CELGENE CORPORATION, priority 2008, dated 2009).
≈ marks a conversion by molar mass, not a printed value. Where two headings read alike, the source gives them in different places.

Columns and labels:
[1] = Interconversion Studies of solid forms; format: physicochemical; conditions: EQ in acetone:ethanol (1:1) at 25 °C; slurry agitated at least 2 days
Protocol: Interconversion Studies. Interconversion experiments were performed by making slurries of a solid form in a saturated solvent. The slurries were agitated for at least 2 days at about 25 °C. The saturated solution was removed by filtration and the solid was dried in the air.

[2] = Compression Studies of solid forms; conditions: 2000 psi force for at least one minute
[3] = Stability Studies of solid forms; format: physicochemical
Protocol: Stability Studies. The stabilities of Forms A, B, C and D were studied by exposing the solid samples to the stress condition of 40 °C / 75% RH for four weeks. Moreover, the stabilities of Forms A, B, C and D in different solvents were studied by equilibration in different solvents at 40 °C for four weeks. The slurries then were filtered and dried in the air. Solid samples obtained from the stability experiments were analyzed by XRPD and DSC.

[4] = Hygroscopicity studies (DVS moisture sorption/desorption); format: physicochemical; conditions: for mass change of the starting mass of the sample (moisture sorption): RH increased from about 0% to about 95% RH; for solid-state transformation as a result of DVS analysis (XRPD): after full adsorption/desorption cycle, about 0% to about 95% RH, about 25 °C
Protocol: Hygroscopicity studies. The hygroscopicity of various solid forms was studied using a Surface Measurement Systems DVS instrument. Typically a sample size of between about 10-50 mg was loaded into the DVS instrument sample pan and the sample was analyzed on a DVS automated sorption analyzer at about 25 °C. The relative humidity was increased in increments of about 10% from about 0% to about 95% RH: The relative humidity was then decreased in a similar manner to accomplish a full adsorption/desorption cycle. The mass was recorded at periodic intervals throughout the experiment.
Hygroscopicity Studies. […] Table 6. Solubility Study on Form B

[5] = Solubility Studies in solvents; format: physicochemical; conditions: 25 °C, thermodynamic from solid, about 25 °C, read-out: Approximate Solubility
Protocol: Solubility Studies. A weighed sample of Compound A (about 100 mg) was treated with about 2 mL of the test solvent. The solvents used were either reagent or HPLC grade. The resulting mixture was agitated for at least 24 hours at about 25 °C. When all of the solids were dissolved by visual inspection, the estimated solubilities were calculated. The solubilities were estimated from these experiments based on the total volume of solvent used to give a solution. The actual solubilities may be greater than those calculated due to the use of large amount of solvent or to a slow rate of dissolution. […] A known volume of filtrate was evaporated to dryness and the weight of the residue was measured.
Solubility Studies. […] Form B was also found to have low solubility in several solvents including n-butanol, heptane, 2-propanol, toluene and water (less than about 1 mg/mL).

[6] = EQ in ethanol at 40 °C for 4 weeks
[7] = EQ in heptane at 40 °C for 4 weeks
[8] = EQ in toluene at 40 °C for 4 weeks
[9] = EQ in water at 40 °C for 4 weeks

Row | Structure (SMILES) | Analysis by XRPD (resulting form) [1] | physical stability upon compression by XRPD analysis [2] | Analysis by XRPD (resulting form) ([3]; 40 °C / 75% RH, 4 weeks) | Appearance ([3]; 40 °C / 75% RH, 4 weeks) | Analysis by XRPD (resulting form) [3, 6] | Analysis by XRPD (resulting form) [3, 7] | Analysis by XRPD (resulting form) [3, 8] | Analysis by XRPD (resulting form) [3, 9] | mass change of the starting mass of the sample (moisture sorption) [4] | solid-state transformation as a result of DVS analysis (XRPD) [4] | also measured
1 | CCOc1cc(C(CS(C)(=O)=O)N2C(=O)c3cccc(NC(C)=O)c3C2=O)ccc1OC (single isomer, unassigned; (+)) [Form A, (+)-2-[1-(3-ethoxy-4-methoxyphenyl)-2-methylsulfonylethyl]-4-acetylaminoisoindoline-1,3-dione] | Form B | substantially physically stable | Form A | White solid | Form F | Form A | Form C | Form A | about 0.4% | none of the forms analyzed underwent substantial solid-state transformation | –
2 | CCOc1cc(C(CS(C)(=O)=O)N2C(=O)c3cccc(NC(C)=O)c3C2=O)ccc1OC (single isomer, unassigned; (+)) [Form B, (+)-2-[1-(3-ethoxy-4-methoxyphenyl)-2-methylsulfonylethyl]-4-acetylaminoisoindoline-1,3-dione] | – | substantially physically stable | Form B | White solid | Form B | Form B | Form B | Form B | about 0.6% | none of the forms analyzed underwent substantial solid-state transformation | solubility ([5]; 2-propanol, organic solvent or mixture, 2-Propanol): < 1000 µg/mL; solubility ([5]; absolute ethanol, organic solvent or mixture, Absolute ethanol): 1380 µg/mL (≈ 3 mM); solubility ([5]; acetone, organic solvent or mixture, Acetone): > 50000 µg/mL; solubility ([5]; acetonitrile, organic solvent or mixture, Acetonitrile): > 50000 µg/mL; solubility ([5]; ethanol:water (1:1), aqueous with cosolvent or surfactant or cyclodextrin, Ethanol: Water (1:1)): 2860 µg/mL (≈ 6.21 mM); solubility ([5]; ethyl acetate, organic solvent or mixture, Ethyl acetate): ~30200 µg/mL (≈ 65.5 mM); solubility ([5]; methanol, organic solvent or mixture, Methanol): 4050 µg/mL (≈ 8.79 mM); solubility ([5]; methyl ethyl ketone, organic solvent or mixture, Methyl ethyl ketone): > 50000 µg/mL; solubility ([5]; methyl t-butyl ether, organic solvent or mixture, Methyl t-butyl ether): 1170 µg/mL (≈ 2.54 mM); solubility ([5]; methylene chloride, organic solvent or mixture, Methylene chloride): > 50000 µg/mL; solubility ([5]; n-butanol, organic solvent or mixture, n-Butanol): < 1000 µg/mL; solubility ([5]; n-butyl acetate, organic solvent or mixture, n-Butyl acetate): 9750 µg/mL (≈ 21.2 mM); solubility ([5]; tetrahydrofuran, organic solvent or mixture, Tetrahydrofuran): > 50000 µg/mL; solubility ([5]; toluene, organic solvent or mixture, Toluene): < 1000 µg/mL; solubility ([5]; water, water, Water): < 1000 µg/mL
3 | CCOc1cc(C(CS(C)(=O)=O)N2C(=O)c3cccc(NC(C)=O)c3C2=O)ccc1OC (single isomer, unassigned; (+)) [Form C, (+)-2-[1-(3-ethoxy-4-methoxyphenyl)-2-methylsulfonylethyl]-4-acetylaminoisoindoline-1,3-dione] | Form C | substantially physically stable | Form C | Yellow solid | Form C | Form C | Form C | Form C | about 0.5% | none of the forms analyzed underwent substantial solid-state transformation | –
4 | CCOc1cc(C(CS(C)(=O)=O)N2C(=O)c3cccc(NC(C)=O)c3C2=O)ccc1OC (single isomer, unassigned; (+)) [Form D, (+)-2-[1-(3-ethoxy-4-methoxyphenyl)-2-methylsulfonylethyl]-4-acetylaminoisoindoline-1,3-dione] | Form B | substantially physically stable | Form D | White solid | Form B | Form B | Form C | Form B | about 1.5% | none of the forms analyzed underwent substantial solid-state transformation | –
5 | CCOc1cc(C(CS(C)(=O)=O)N2C(=O)c3cccc(NC(C)=O)c3C2=O)ccc1OC (single isomer, unassigned; (+)) [Form E, (+)-2-[1-(3-ethoxy-4-methoxyphenyl)-2-methylsulfonylethyl]-4-acetylaminoisoindoline-1,3-dione] | Form B | – | – | – | – | – | – | – | about 5.1% | none of the forms analyzed underwent substantial solid-state transformation | –
6 | CCOc1cc(C(CS(C)(=O)=O)N2C(=O)c3cccc(NC(C)=O)c3C2=O)ccc1OC (single isomer, unassigned; (+)) [Form F, (+)-2-[1-(3-ethoxy-4-methoxyphenyl)-2-methylsulfonylethyl]-4-acetylaminoisoindoline-1,3-dione] | Form F | – | – | – | – | – | – | – | about 0.2% | none of the forms analyzed underwent substantial solid-state transformation | –
7 | CCOc1cc(C(CS(C)(=O)=O)N2C(=O)c3cccc(NC(C)=O)c3C2=O)ccc1OC (single isomer, unassigned; (+)) [Form G, (+)-2-[1-(3-ethoxy-4-methoxyphenyl)-2-methylsulfonylethyl]-4-acetylaminoisoindoline-1,3-dione] | Form B | – | – | – | – | – | – | – | about 0.4% | none of the forms analyzed underwent substantial solid-state transformation | –
